Assay results from paper PMC7459852, “Identification of 6-(piperazin-1-yl)-1,3,5-triazine as a chemical scaffold with broad anti-schistosomal activities” (Wellcome Open Research, 2020).
Where two headings read alike, the source gives them in different places.

Legend:
S. mansoni miracidia = assay: Miracidia to sporocyst transformation screens; format: cell-based, Schistosoma mansoni; conditions: 48 h
Procedure: Following hatching of S. mansoni eggs, miracidia were incubated on ice for 15 min and then centrifuged at 700 x g for 5 min at 4°C. The miracidia pellet was then re-suspended in 5 ml of Chernin's balanced salt solution (CBSS), subjected to pelleting and two subsequent washes (all at 700 x g for 5 min at 4°C). Afterwards, the supernatant was carefully removed with a serological pipette and the miracidia-enriched pellet was resuspended with CBSS supplemented with 1 mg/ml each of glucose and trehalose and 500 µl of Penicillin-Streptomycin (containing 10,000 units penicillin and 10 mg streptomycin/ml, P4333, Sigma-Aldrich). In preparation for the screens, CBSS (250 µl) was aliquoted to each well of a 24-well plate followed by addition of each compound in DMSO (1 mM concentration in 1% DMSO) or DMSO alone (1%, negative control). Next, approximately 20-25 miracidia (in 250 µl of CBSS) were aliquoted to each well. […] Both preliminary and secondary screens were performed in duplicate on two separate occasions (two independent biological replicates). Miracidia were incubated for 48 h at 26°C before being evaluated using an Olympus inverted light microscope for morphological and behavioural changes differing from the control wells. Dead, partially transformed and fully transformed miracidia were enumerated in the DMSO control and the assay plates as previously described, [23], [59]. […] Absence of ciliated plates attached to the surface of the parasite and formation of sporocyst tegument defined the so-called “fully transformed” parasites.

S. mansoni schistosomula = assay: Schistosomula screens (Roboworm, phenotype and motility); format: cell-based, Schistosoma mansoni; conditions: 72 h
Procedure: Anthelmintic activity on the schistosomula stage of S. mansoni was evaluated using Roboworm, an integrated high-throughput, high content image analysis platform originally developed by Paveley et al. and subsequently used by our research group as previously described, [28], [50], [51]. Alternatively, the computer application Worminator can be used to assess motion of microscopic parasites such as the schistosomula stage of S. mansoni. Compounds (as single concentration or two-fold titrations) were prepared for screening in a 384-well plate (PerkinElmer, MA, USA), where solutions (1.6 mM, 0.5 μl) were wet stamped using the Biomek NX ^P liquid handling platform into Basch medium (20 μl). Negative (0.625% DMSO) and positive (Auranofin - AUR - at 10 µM final concentration in 0.625% DMSO) control wells were similarly prepared. Mechanically transformed schistosomula (about 120 parasites in 60 μl of Basch medium) were distributed into each treated well using a WellMate (Thermo Scientific, Loughborough, UK). Schistosomula/compound co-cultures were then incubated at 37°C for 72 h in a humidified atmosphere containing 5% CO 2. At 72 h, parasite/compound co-cultures were resuspended and tissue culture plates were imaged under the same conditions (37°C for 72 h in a humidified atmosphere containing 5% CO 2) using an ImageXpressXL high content imager (Molecular Devices, UK) with subsequent images processed for phenotype and motility as previously reported. Plate analysis returned a phenotype and motility score for each well and any scores below -0.15 and -0.35 (defined threshold anti-schistosomula values for phenotype and motility scores, respectively) defined a condition displaying anti-schistosomula activity. Compound screens were assessed based on the Z´ values (derived from the means and standard deviations of positive and negative controls) and those equal to or above 0.3 for both phenotype and motility were considered successful.
Phenotype and motility scores of each titration were used to generate dose response curves in GraphPad Prism 7.02 based on the corrected average score of the three replicates for each data point.

[1] = MTT cytotoxicity assay on HepG2 cells; format: cell-based, Human; conditions: human, HepG2 cells, MTT, 24 h; three dose response titrations (200 - 1 µM)
Procedure: Compound cytotoxicity on Human Hepatocyte Carcinoma (HepG2) cells (85011430, Sigma Aldrich) was elucidated by the MTT (3-(4,5-dimethylthiazol-2-yl)-2,5-diphenyltetrazolium bromide) tetrazolium reduction assay as previously described, [28], [50]. Briefly, HepG2 cells were seeded at a density of 20,000 per well in 96-well black, clear bottom falcon plate in modified BME medium (50 μl; containing 1% antibiotic/mycotic (Sigma-Aldrich, Gillingham, UK), 1% 200 mM L-glutammine (Gibco, Paisley, UK), 1% MEM non-essential amino acid solution (Gibco, Paisley, UK), and 10% fetal bovine serum (Gibco, Paisley, UK)). HepG2 plates seeded for cytotoxicity screens were treated with compounds 24 h post-seeding. Each compound was tested at 200, 100, 75, 50, 20, 10 and 1 µM; each concentration was assayed in triplicate. Blank wells (no cells), as well as positive (1% v/v Triton X-100, X100, Sigma-Aldrich) and negative (1.25% v/v DMSO or media only) controls, were included in each plate. After addition of compounds, each plate was then incubated for a further 20 h before application of MTT reagent for assessment of compound cytotoxicity (4 h incubation with MTT for a total 24 h cell-drug incubation). The absorbance reading at 570 nm was measured with a POLARstar Omega (BMG Labtech, UK) microtiter plate reader. Dose response curves were generated in GraphPad Prism 7.02 based on the corrected average absorbance of the three replicates for each concentration point.

S. mansoni adult worms [2] = assay: Adult worm screens (WormassayGP2 motility, egg count); format: cell-based, Schistosoma mansoni; conditions: 72 h
Procedure: For compound screening, adult worms (three worm pairs/well for compound 7 and the hit compounds of set two; one worm pair/well for the hit compounds of set three) were transferred into wells of a 48-well tissue culture plate containing 1 ml of adult worm media. Adult worms were treated with compounds previously identified as hits at 10 µM on 72 h cultured schistosomula. Worms were dosed with an appropriate volume of 10 mM stock solution of each compound (in DMSO) to have a concentration range of 50 – 6.25 µM (up to 0.5% DMSO, primary screen of compound 7). Secondary screens were performed on the structural analogues of compound 7 (only the schistosomula hits at 10 µM) at a single concentration (12.5 µM) and compared to the same concentration of the parental compound (included in the screen as reference). DMSO (0.5%) and praziquantel (10 µM in 0.5% DMSO) were also included as negative and positive control treatments (both primary and secondary screens). Treated adult worms were incubated for 72 h in a humidified environment at 5% CO 2 at 37°C. Parasite motility after drug treatment was assessed by a digital image processing-based system (WormassayGP2, see Software availability) modified after Wormassay, [56], [57]. Egg production was assessed according to the methodology described by Edwards et al..

S. mansoni adult worms [3] = assay: as above; format: cell-based; conditions: Schistosoma mansoni, two dose response titrations (100 – 3.13 µM)

- EC50 (S. mansoni schistosomula; Schistosoma mansoni, average of phenotype and motility metrics, read-out: Schistosomula EC50 Average): 5.54 µM
- EC50 (S. mansoni schistosomula; Schistosoma mansoni, dose response titrations (10 - 0.625 µM), read-out: Schistosomula EC50 Motility): 5.03 µM
- EC50 (S. mansoni schistosomula; Schistosoma mansoni, dose response titrations (10 - 0.625 µM), read-out: Schistosomula EC50 Phenotype): 5.65 µM
- EC50 (S. mansoni schistosomula; average of phenotype and motility metrics, read-out: Schistosomula EC50 Average): 5.34 µM
- EC50 (S. mansoni adult worms [3]): 11 µM
SMILES: c1ccc(Nc2nc(N3CCCC3)nc(N3CCNCC3)n2)cc1 [Compound 7]
- inhibition of miracidia transformation (S. mansoni miracidia; 5, 2 and 0.5 µM): 20–25%
- effect on miracidia (S. mansoni miracidia; 50 and 25 µM): completely lethal
- inhibition at 10 µM (S. mansoni miracidia; Schistosoma mansoni, 10 µM): 45%
- anti-schistosomula activity (hit on phenotype and motility) (S. mansoni schistosomula; 10 µM): remaining active
- anti-schistosomula activity (hit on phenotype and motility) (S. mansoni schistosomula; 50 µM): showed anti-schistosomal activity
- schistosomula phenotype induced (S. mansoni schistosomula; both 50 and 10 µM): swollen with some individuals additionally displaying posterior end compression
- CC50 at 24 h [1]: 13.7 µM
- effect on adult worms (motility) (S. mansoni adult worms [2]; 12.50 and 6.25 µM): worm recovery began at 12.50 µM and remained at 6.25 µM
- effect on adult worms (motility) (S. mansoni adult worms [2]; 50 and 25 µM): lethal effect
- egg production (worm fecundity) (S. mansoni adult worms [2]; titration 50 - 6.25 µM, effect up to and including 12.50 µM): particularly effective in inhibiting worm fecundity
